Data taken from PubChem BioAssay AID1259407 (Chemical Carcinogenesis Research Information System (CCRIS), 2018).
Calls of active or inactive are those of the source. How the calls were made is not given here.

Tested on: CCRIS mutagenicity, Ames/micronucleus/aberration tests
Assay: CCRIS mutagenicity studies
[1] = Test System: AMES SALMONELLA TYPHIMURIUM, Strain/Indicator: TA98, Metabolic Activation: HAMSTER, LIVER, S-9, AROCLOR 1254 (10%), Method: PREINCUBATION
[2] = Test System: AMES SALMONELLA TYPHIMURIUM, Strain/Indicator: TA98, Metabolic Activation: NONE, Method: PREINCUBATION
[3] = Test System: AMES SALMONELLA TYPHIMURIUM, Strain/Indicator: TA98, Metabolic Activation: RAT, LIVER, S-9, AROCLOR 1254 (10%), Method: PREINCUBATION
[4] = Test System: AMES SALMONELLA TYPHIMURIUM, Strain/Indicator: TA100, Metabolic Activation: HAMSTER, LIVER, S-9, AROCLOR 1254 (10%), Method: PREINCUBATION
[5] = Test System: AMES SALMONELLA TYPHIMURIUM, Strain/Indicator: TA100, Metabolic Activation: NONE, Method: PREINCUBATION
[6] = Test System: AMES SALMONELLA TYPHIMURIUM, Strain/Indicator: TA100, Metabolic Activation: RAT, LIVER, S-9, AROCLOR 1254 (10%), Method: PREINCUBATION
[7] = Test System: AMES SALMONELLA TYPHIMURIUM, Strain/Indicator: TA102, Metabolic Activation: NONE, Method: STANDARD PLATE
[8] = Test System: AMES SALMONELLA TYPHIMURIUM, Strain/Indicator: TA1535, Metabolic Activation: HAMSTER, LIVER, S-9, AROCLOR 1254 (10%), Method: PREINCUBATION
[9] = Test System: AMES SALMONELLA TYPHIMURIUM, Strain/Indicator: TA1535, Metabolic Activation: NONE, Method: PREINCUBATION
[10] = Test System: AMES SALMONELLA TYPHIMURIUM, Strain/Indicator: TA1535, Metabolic Activation: RAT, LIVER, S-9, AROCLOR 1254 (10%), Method: PREINCUBATION
[11] = Test System: AMES SALMONELLA TYPHIMURIUM, Strain/Indicator: TA1537, Metabolic Activation: HAMSTER, LIVER, S-9, AROCLOR 1254 (10%), Method: PREINCUBATION
[12] = Test System: AMES SALMONELLA TYPHIMURIUM, Strain/Indicator: TA1537, Metabolic Activation: NONE, Method: PREINCUBATION
[13] = Test System: AMES SALMONELLA TYPHIMURIUM, Strain/Indicator: TA1537, Metabolic Activation: RAT, LIVER, S-9, AROCLOR 1254 (10%), Method: PREINCUBATION

## [Cl][Hg][Cl]
End Point: IN VITRO MICRONUCLEUS, Test System: CHINESE HAMSTER V79 CELLS, Metabolic Activation: NONE
  mutagenic call: active; positive
End Point: IN VITRO MICRONUCLEUS, Test System: CHL/IU CELLS, Metabolic Activation: NONE
  mutagenic call: inactive; negative
End Point: IN VITRO MICRONUCLEUS, Test System: HUMAN PERIPHERAL LYMPHOCYTES, Metabolic Activation: NONE
  mutagenic call: active; positive
End Point: IN VIVO MICRONUCLEUS, Test System: RETICULOCYTES, Species: RAT, Strain/Sex: WISTAR/FEMALE, Route: ORAL (GAVAGE)
  mutagenic call: active; positive
[1]
  mutagenic call: inactive; negative
[2]
  mutagenic call: inactive; negative
[3]
  mutagenic call: inactive; negative
[4]
  mutagenic call: inactive; negative
[5]
  mutagenic call: inactive; negative
[6]
  mutagenic call: inactive; negative
[7]
  mutagenic call: inactive; negative
[8]
  mutagenic call: inactive; negative
[9]
  mutagenic call: inactive; negative
[10]
  mutagenic call: inactive; negative
[11]
  mutagenic call: inactive; negative
[12]
  mutagenic call: inactive; negative
[13]
  mutagenic call: inactive; negative
Test System: E. COLI, Strain/Indicator: WP2 UVRA, Metabolic Activation: NONE, Method: SPOT TEST
  mutagenic call: inactive; negative
Test System: HUMAN BLOOD LYMPHOCYTES, Strain/Indicator: HUMAN BLOOD LYMPHOCYTES (HPRT)/6-THIOGUANINE, Metabolic Activation: NONE, Method: SUSPENSION/PLATE
  mutagenic call: active; positive
Test System: MOUSE LYMPHOMA, Strain/Indicator: L5178Y (TK+/TK-), Metabolic Activation: NONE, Method: SUSPENSION/PLATE
  mutagenic call: active; positive

## ClC(COCC(Cl)C(Cl)(Cl)Cl)C(Cl)(Cl)Cl (centres undefined)
Test System: AMES SALMONELLA TYPHIMURIUM, Strain/Indicator: TA98, Metabolic Activation: NONE, Method: MICROSUSPENSION
  mutagenic call: inactive; negative
Test System: AMES SALMONELLA TYPHIMURIUM, Strain/Indicator: TA98, Metabolic Activation: S-9, Method: MICROSUSPENSION
  mutagenic call: inactive; negative
Test System: AMES SALMONELLA TYPHIMURIUM, Strain/Indicator: TA100, Metabolic Activation: NONE, Method: MICROSUSPENSION
  mutagenic call: active; positive
Test System: AMES SALMONELLA TYPHIMURIUM, Strain/Indicator: TA100, Metabolic Activation: S-9, Method: MICROSUSPENSION
  mutagenic call: inactive; negative

## CN(C)C(=S)N(C)C
[1]
  mutagenic call: inactive; negative
[2]
  mutagenic call: inactive; negative
[3]
  mutagenic call: inactive; negative
[4]
  mutagenic call: inactive; negative
[5]
  mutagenic call: inactive; negative
[6]
  mutagenic call: inactive; negative
[8]
  mutagenic call: inactive; negative
[9]
  mutagenic call: inactive; negative
[10]
  mutagenic call: inactive; negative
[11]
  mutagenic call: inactive; negative
[12]
  mutagenic call: inactive; negative
[13]
  mutagenic call: inactive; negative

## Fc1cccc(F)n1
Test System: AMES SALMONELLA TYPHIMURIUM, Strain/Indicator: TA97, Metabolic Activation: NONE, Method: STANDARD PLATE
  mutagenic call: inactive; negative
Test System: AMES SALMONELLA TYPHIMURIUM, Strain/Indicator: TA97, Metabolic Activation: RAT, LIVER, S-9, AROCLOR 1254, Method: STANDARD PLATE
  mutagenic call: inactive; negative
Test System: AMES SALMONELLA TYPHIMURIUM, Strain/Indicator: TA98, Metabolic Activation: NONE, Method: STANDARD PLATE
  mutagenic call: inactive; negative
Test System: AMES SALMONELLA TYPHIMURIUM, Strain/Indicator: TA98, Metabolic Activation: RAT, LIVER, S-9, AROCLOR 1254, Method: STANDARD PLATE
  mutagenic call: inactive; negative
Test System: AMES SALMONELLA TYPHIMURIUM, Strain/Indicator: TA100, Metabolic Activation: NONE, Method: STANDARD PLATE
  mutagenic call: inactive; negative
Test System: AMES SALMONELLA TYPHIMURIUM, Strain/Indicator: TA100, Metabolic Activation: RAT, LIVER, S-9, AROCLOR 1254, Method: STANDARD PLATE
  mutagenic call: inactive; negative
[7]
  mutagenic call: inactive; negative
Test System: AMES SALMONELLA TYPHIMURIUM, Strain/Indicator: TA102, Metabolic Activation: RAT, LIVER, S-9, AROCLOR 1254, Method: STANDARD PLATE
  mutagenic call: inactive; negative
